Measurements published in patent US5159102A, “7-thiaprostaglandins E, and process for producing same” (Teijin Limited, priority 1990, dated 1992).
In brackets after ≈: the same amount, converted by molar mass.

Tests used:
[1] = system: ulcer formation induced by indomethacin (stomach); assay: Inhibiting effect on ulcer formation induced by indomethacin (antiulcerative effect); type: in vivo; conditions: Rattus norvegicus, po; P.O., Wister male rats; 30 min before indomethacin 20 mg/kg p.o.; ulcer length 5 h after
Protocol: The inhibiting effect on ulcer formation induced by indomethacin was examined by using rats. Wister male rats (7 weeks old and body weight of 220 g) were abstained from food for 24 hours except giving water and then subjected to experiments.
The sample compounds to be tested were dissolved in a phosphoric acid buffer (pH 7.4) containing 0.9% NaCl and the solution was orally administered to the rats. 30 minutes after the administration, indomethacin was orally administered to the rats at a dose of 20 mg/kg. 5 hours after the administration of the indomethacin, the rats were killed and the ulcer formation in the stomach was examined by determining the length of the ulcer formation portion under a stereomicroscope. From this measurement, the inhibition of ulcer formation by the sample compounds were calculated to determine the ED values.

[2] = system: blood platelet aggregation (ADP, PRP); assay: In vitro blood platelet aggregation inhibition effect; type: cell-based, native Japanese white male domestic rabbits; conditions: Oryctolagus cuniculus, rabbit PRP, 10 μM ADP, 37° C., read-out: Anti-platelet aggregation effect IC50
Protocol: The in vitro blood platelet aggregation inhibition effect of the sample compounds to be tested was examined by using rabbits. That is, blood was collected from the ear vein of native Japanese white male domestic rabbits weighing 2.5 to 3.5 kg. The collected blood was 9 parts by volume per 1 part by volume of a 3.8% sodium citrate solution. The blood was centrifuged at 1000 r.p.m. for 10 minutes. The upper layer portion was separated as PRP (rich in platelet blood plasma). The lower layer portion was further centrifuged at 2800 r.p.m. for 10 minutes to divide it into two layers. The upper layer portion was separated as PPP (poor in platelet blood plasma). The number of the platelet was diluted with PPP to […]. After the adjustment, 25 μl of the sample compound was added to 250 μl of PRP, which was preincubated at a temperature of 37° C. for 2 minutes. Thereafter, 10 μM of ADP (final) was added to the preincubated PRP to record the variation of the transmittance by means of aggregometer. […]
When the activity of the sample compounds was determined, the ethanol solution was diluted with a phosphoric acid buffer (PH 7.4). The ethanol solution diluted with the buffer was left to stand at a temperature of 0° C. for 4 hours, after which the activity of the sample compounds was determined in the same manner.
The platelet aggregation inhibition was calculated by the following formula: […]

**Q.** With CCCCC(O)C/C=C/[C@H]1[C@H](O)CC(=O)[C@@H]1SCCCCCC(=O)OC (stereo partly shown) as the compound, how does the ED50 [1] read?
**A.** Its ED50 is 0.01 mg/kg.

**Q.** What about the IC50 [2] of the same compound?
**A.** The IC50 was 17 µg/mL (≈ 44 µM).

**Q.** With CCCCCC(O)/C=C/C1CCC(=O)C1SCCCCCC(=O)OC (stereo not shown) as the compound, how does the ED50 [1] read?
**A.** The ED50 was 0.3 mg/kg.

**Q.** What about the IC50 [2] of the same compound?
**A.** Its IC50 is > 100 µg/mL.
